Measured values from PubChem BioAssay (NCI).
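Where inhibition never reached the appropriate level, the endpoint shown equals the highest concentration tested. Otherwise, values were interpolated linearly from a five-concentration, 48-hour dose response in 96-well plates. Abbreviation: GI50, concentration required for 50% inhibition of growth. TGI: concentration producing complete growth inhibition.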

Key:
Assay in all cases: growth of human tumour cells (NCI), 48 h
[1] = system: SK-MEL-28 melanoma
[2] = system: HCT-116 colon
[3] = system: PC-3 prostate
[4] = system: NCI-H226 lung
[5] = system: NCI-H460 lung
[6] = system: HCT-15 colon
[7] = system: SW-620 colon
[8] = system: UACC-257 melanoma
[9] = system: UO-31 renal
[10] = system: CAKI-1 renal
[11] = system: SNB-19 CNS
[12] = system: A549 NSCLC
[13] = system: IGROV1 ovarian
[14] = system: OVCAR-8 ovarian
[15] = system: U251 CNS
[16] = system: MOLT-4 leukemia
[17] = system: EKVX NSCLC
[18] = system: COLO 205 colon
[19] = system: DU-145 prostate
[20] = system: SF-268 CNS
[21] = system: HCC-2998 colon
[22] = system: NCI/ADR-RES ovarian
[23] = system: HOP-62 NSCLC
[24] = system: HOP-92 NSCLC
[25] = system: K-562 leukemia
[26] = system: HT29 colon
[27] = system: HS 578T breast
[28] = system: MALME-3M melanoma
[29] = system: OVCAR-3 ovarian
[30] = system: MDA-MB-435
[31] = system: SK-OV-3 ovarian
[32] = system: HL-60(TB) leukemia
[33] = system: SR leukemia
[34] = system: SK-MEL-2 melanoma
[35] = system: OVCAR-5 ovarian
[36] = system: NCI-H522 lung
[37] = system: TK-10 renal
[38] = system: BT-549 breast
[39] = system: UACC-62 melanoma
[40] = system: OVCAR-4 ovarian
[41] = system: SF-295 CNS
[42] = system: A498 renal
[43] = system: LOX IMVI melanoma
[44] = system: MDA-MB-231 breast
[45] = system: SN12C renal
[46] = system: SNB-75 CNS
[47] = system: T-47D breast
[48] = system: NCI-H23 lung
[49] = system: RPMI-8226 leukemia
[50] = system: KM12 colon
[51] = system: ACHN renal
[52] = system: CCRF-CEM leukemia
[53] = system: SK-MEL-5 melanoma
[54] = system: MCF7 breast
[55] = system: SF-539 CNS
[56] = system: 786-0 renal

O=C1c2cccc3cccc(c23)C(=O)N1CCCCCN1CCN(CCCCCOc2ccc(-c3nc4ccc(N5CCOCC5)cc4[nH]3)cc2)CC1
GI50 [1]: 13 µM | TGI [1]: 25.7 µM | GI50 [2]: 5.06 µM | TGI [2]: > 100 µM | GI50 [3]: 2.77 µM | TGI [3]: 17.6 µM | GI50 [4]: 7.24 µM | TGI [4]: 30.2 µM | GI50 [5]: 16.8 µM | TGI [5]: 30.8 µM | GI50 [6]: 2.62 µM | TGI [6]: 8.63 µM | GI50 [7]: 1.83 µM | TGI [7]: 4.21 µM | GI50 [8]: 2.15 µM | TGI [8]: 3.76 µM | GI50 [9]: 3.47 µM | TGI [9]: 34.7 µM | GI50 [10]: > 45.6 µM | TGI [10]: > 70.6 µM | GI50 [11]: > 46.1 µM | TGI [11]: > 60 µM | GI50 [12]: 2.22 µM | TGI [12]: 5.26 µM | GI50 [13]: 1.76 µM | TGI [13]: 8.08 µM | GI50 [14]: 1.32 µM | TGI [14]: 4.95 µM | GI50 [15]: 5.47 µM | TGI [15]: 10.2 µM | GI50 [16]: 0.264 µM | TGI [16]: 2.29 µM | GI50 [17]: > 47.1 µM | TGI [17]: > 74.6 µM | GI50 [18]: 13.1 µM | TGI [18]: 28.7 µM | GI50 [19]: 14.7 µM | TGI [19]: 27.8 µM | GI50 [20]: 22.4 µM | TGI [20]: 43.2 µM | GI50 [21]: 36.5 µM | TGI [21]: > 91 µM | GI50 [22]: 8.7 µM | TGI [22]: > 60.2 µM | GI50 [23]: 35.7 µM | TGI [23]: 79.2 µM | GI50 [24]: 25.1 µM | TGI [24]: > 58.2 µM | GI50 [25]: 0.135 µM | GI50 [26]: 5.99 µM | TGI [26]: 23.8 µM | GI50 [27]: 21.8 µM | TGI [27]: 45.4 µM | GI50 [28]: 17.7 µM | TGI [28]: 40 µM | GI50 [29]: 6.07 µM | TGI [29]: 11.2 µM | GI50 [30]: 3.59 µM | TGI [30]: 13.2 µM | GI50 [31]: > 100 µM | TGI [31]: > 100 µM | GI50 [32]: 0.372 µM | TGI [32]: > 19.9 µM | GI50 [33]: 1.18 µM | TGI [33]: 3.2 µM | GI50 [34]: 10.7 µM | TGI [34]: 32.8 µM | GI50 [35]: > 100 µM | TGI [35]: > 100 µM | GI50 [36]: > 49 µM | TGI [36]: > 68.5 µM | GI50 [37]: 8.24 µM | TGI [37]: 14.8 µM | GI50 [38]: 4.88 µM | TGI [38]: 23.2 µM | GI50 [39]: 16.1 µM | TGI [39]: > 57.1 µM | GI50 [40]: 7.04 µM | TGI [40]: 28.3 µM | GI50 [41]: 8.04 µM | TGI [41]: 25.4 µM | GI50 [42]: > 74.9 µM | TGI [42]: > 100 µM | GI50 [43]: 3.01 µM | TGI [43]: 7.97 µM | GI50 [44]: 12.6 µM | TGI [44]: > 20.4 µM | GI50 [45]: > 100 µM | TGI [45]: > 100 µM | GI50 [46]: 18.3 µM | TGI [46]: 34.6 µM | GI50 [47]: 2.01 µM | TGI [47]: 7.71 µM | GI50 [48]: 21.2 µM | TGI [48]: 46.6 µM | GI50 [49]: 0.787 µM | TGI [49]: 3.72 µM | GI50 [50]: 2.15 µM | TGI [50]: 4.29 µM | GI50 [51]: > 35.7 µM | TGI [51]: > 56.1 µM | GI50 [52]: 1.31 µM | TGI [52]: 8.97 µM | GI50 [53]: 6.43 µM | TGI [53]: 19.9 µM | GI50 [54]: 2.49 µM | TGI [54]: 8 µM | GI50 [55]: 10.6 µM | TGI [55]: 29 µM | GI50 [56]: 22.9 µM | TGI [56]: 51.3 µM
